Measured values from PubChem BioAssay AID212 (DTP/NCI, 2004).
“And” between values parts separate entries of the source, which are not always exact repeats. Identical values can stand only once. Records with an inconclusive call do not appear.

Test system: BDF1 mice, colon carcinoma 38 sc, T/C %
Test: NCI In Vivo Anticancer Drug Screen. Data for tumor model Colon Carcinoma 38 (subcutaneous) in B6D2F1 (BDF1) mice
Conditions: endpoint: median tumor weight (est.), higher = larger tumour
Summary of the method: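 Compound antitumor activity was assessed in mice carrying transplantable tumors. Survival or tumor size was recorded, and each value is the treated-group measurement divided by that of the vehicle-treated control group.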

[1] = dose: 25.0 mg/kg/injection, schedule: Q07DX002 (ip), vehicle: saline
[2] = dose: 50.0 mg/kg/injection, schedule: Q07DX002 (ip), vehicle: saline
[3] = dose: 3.12 mg/kg/injection, schedule: Q07DX002 (ip), vehicle: saline with Tween-80
[4] = dose: 6.25 mg/kg/injection, schedule: Q07DX002 (ip), vehicle: saline with Tween-80
[5] = dose: 12.5 mg/kg/injection, schedule: Q07DX002 (ip), vehicle: saline with Tween-80
[6] = dose: 25.0 mg/kg/injection, schedule: Q07DX002 (ip), vehicle: saline with Tween-80
[7] = dose: 200.0 mg/kg/injection, schedule: Q07DX002 (ip), vehicle: saline with Tween-80

Compound: N=C(N)SCc1cccc2c(=O)cc(-c3ccccc3)oc12
- T/C (dose: 800.0 mg/kg/injection, schedule: Q07DX002 (ip), vehicle: saline): 52 % of control and 69 % of control

Compound: c1cc[c]([Sn]([NH]c2ncnc3[nH]cnc23)([NH]c2ncnc3[nH]cnc23)[c]2ccccc2)cc1
- T/C [1]: 51 % of control
- T/C [2]: 84 % of control
- T/C (dose: 100.0 mg/kg/injection, schedule: Q07DX002 (ip), vehicle: saline): 46 % of control
- T/C (dose: 200.0 mg/kg/injection, schedule: Q07DX002 (ip), vehicle: saline): 81 % of control
- T/C (dose: 400.0 mg/kg/injection, schedule: Q07DX002 (ip), vehicle: saline): 66 % of control

Compound: O=[n+]1c2ccccc2n([O-])c2ccccc21.[Cl][Ni][Cl]
- T/C [3]: 89 % of control
- T/C [4]: 111 % of control
- T/C [5]: 89 % of control
- T/C [6]: 97 % of control

Compound: C[CH2][Ge]([CH2]C)[CH2]C.C[CH2][Ge]([CH2]C)[CH2]C.C[CH2][Ge]([CH2]C)[O][Ge]([CH2]C)[CH2]C
- T/C [5]: 80 % of control
- T/C [6]: 90 % of control
- T/C (dose: 50.0 mg/kg/injection, schedule: Q07DX002 (ip), vehicle: saline with Tween-80): 87 % of control
- T/C (dose: 100.0 mg/kg/injection, schedule: Q07DX002 (ip), vehicle: saline with Tween-80): 68 % of control
- T/C [7]: 81 % of control and 95 % of control
- T/C (dose: 800.0 mg/kg/injection, schedule: Q07DX002 (ip), vehicle: saline with Tween-80): 90 % of control

Compound: Cc1cc(=NO)cc(C)n1O
- T/C (dose: 50.0 mg/kg/injection, schedule: Q07DX002 (ip), vehicle: distilled water + alcohol): 80 % of control
- T/C (dose: 100.0 mg/kg/injection, schedule: Q07DX002 (ip), vehicle: distilled water + alcohol): 80 % of control
- T/C (dose: 200.0 mg/kg/injection, schedule: Q07DX002 (ip), vehicle: distilled water + alcohol): 98 % of control
- T/C (dose: 400.0 mg/kg/injection, schedule: Q07DX002 (ip), vehicle: distilled water + alcohol): 106 % of control
- T/C (dose: 800.0 mg/kg/injection, schedule: Q07DX002 (ip), vehicle: distilled water + alcohol): 86 % of control

Compound: CN1CCN(Cc2nc3cccc4c3c([n+]2[O-])-c2ccccc2-4)CC1
- T/C [3]: 72 % of control
- T/C [4]: 58 % of control
- T/C [5]: 81 % of control and 98 % of control and 106 % of control
- T/C [7]: 65 % of control and 75 % of control
- T/C (dose: 400.0 mg/kg/injection, schedule: Q07DX002 (ip), vehicle: saline with Tween-80): 79 % of control

Compound: CN(Cc1cnc2nc(N)nc(N)c2n1)c1ccc(C(=O)N[C@@H](CCC(=O)O)C(=O)O)cc1
- T/C (dose: 1.25 mg/kg/injection, schedule: Q07DX002 (ip), vehicle: sodium bicarbonate): 105 % of control
- T/C (dose: 2.5 mg/kg/injection, schedule: Q07DX002 (ip), vehicle: sodium bicarbonate): 167 % of control and 170 % of control
- T/C (dose: 5.0 mg/kg/injection, schedule: Q07DX002 (ip), vehicle: sodium bicarbonate): 122 % of control
- T/C (dose: 10.0 mg/kg/injection, schedule: Q07DX002 (ip), vehicle: sodium bicarbonate): 111 % of control
- T/C (dose: 20.0 mg/kg/injection, schedule: Q07DX002 (ip), vehicle: sodium bicarbonate): 115 % of control and 117 % of control

Compound: O=C1C=C[C@H](O)[C@@]2(CO)O[C@@H]12
- T/C (dose: 0.62 mg/kg/injection, schedule: Q07DX002 (ip), vehicle: saline with Tween-80): 104 % of control
- T/C (dose: 1.25 mg/kg/injection, schedule: Q07DX002 (ip), vehicle: saline with Tween-80): 116 % of control
- T/C (dose: 2.5 mg/kg/injection, schedule: Q07DX002 (ip), vehicle: saline with Tween-80): 69 % of control
- T/C (dose: 5.0 mg/kg/injection, schedule: Q07DX002 (ip), vehicle: saline with Tween-80): 79 % of control
- T/C (dose: 10.0 mg/kg/injection, schedule: Q07DX002 (ip), vehicle: saline with Tween-80): 97 % of control

Compound: CC12CCC3C(CCC4CC(OC(=O)Cc5ccc(N(CCCl)CCCl)cc5)CCC43C)C1CCC(=O)N2 (centres undefined)
- T/C (dose: 1.5 mg/kg/injection, schedule: Q07DX002 (ip), vehicle: saline with Tween-80): 121 % of control
- T/C (dose: 3.0 mg/kg/injection, schedule: Q07DX002 (ip), vehicle: saline with Tween-80): 77 % of control and 91 % of control
- T/C (dose: 6.0 mg/kg/injection, schedule: Q07DX002 (ip), vehicle: saline with Tween-80): 47 % of control and 48 % of control
- T/C (dose: 24.0 mg/kg/injection, schedule: Q07DX002 (ip), vehicle: saline with Tween-80): 27 % of control and 33 % of control

Compound: C[C@H]1C[C@@H]2[C@H]([C@@H](O)C[C@@]3(C)[C@H]2CC[C@]3(O)C(=O)CO)[C@@]2(C)C=CC(=O)C=C12
- T/C (dose: 6.25 mg/kg/injection, schedule: Q07DX002 (ip), vehicle: Klucel (hydroxypropylcellulose) (HPC)): 82 % of control
- T/C (dose: 25.0 mg/kg/injection, schedule: Q07DX002 (ip), vehicle: Klucel (hydroxypropylcellulose) (HPC)): 87 % of control and 88 % of control
- T/C (dose: 100.0 mg/kg/injection, schedule: Q07DX002 (ip), vehicle: Klucel (hydroxypropylcellulose) (HPC)): 111 % of control and 86 % of control
- T/C (dose: 200.0 mg/kg/injection, schedule: Q07DX002 (ip), vehicle: Klucel (hydroxypropylcellulose) (HPC)): 87 % of control and 88 % of control
- T/C (dose: 400.0 mg/kg/injection, schedule: Q07DX002 (ip), vehicle: Klucel (hydroxypropylcellulose) (HPC)): 93 % of control

Compound: N[C@@H](Cc1ccc(N(CCCl)CCCl)cc1)C(=O)O
- T/C (dose: 2.0 mg/kg/injection, schedule: Q07DX002 (ip), vehicle: Klucel (hydroxypropylcellulose) (HPC)): 81 % of control
- T/C (dose: 2.0 mg/kg/injection, schedule: Q07DX003 (ip), vehicle: saline): 106 % of control
- T/C (dose: 2.5 mg/kg/injection, schedule: Q07DX003 (ip), vehicle: saline with Tween-80): 51 % of control
- T/C (dose: 3.75 mg/kg/injection, schedule: Q07DX002 (ip), vehicle: Klucel (hydroxypropylcellulose) (HPC)): 54 % of control and 61 % of control
- T/C (dose: 4.0 mg/kg/injection, schedule: Q07DX002 (ip), vehicle: Klucel (hydroxypropylcellulose) (HPC)): 107 % of control
- T/C (dose: 5.0 mg/kg/injection, schedule: Q07DX003 (ip), vehicle: saline with Tween-80): 44 % of control
- T/C (dose: 7.5 mg/kg/injection, schedule: Q07DX002 (ip), vehicle: Klucel (hydroxypropylcellulose) (HPC)): 33 % of control and 37 % of control
- T/C (dose: 15.0 mg/kg/injection, schedule: Q07DX002 (ip), vehicle: Klucel (hydroxypropylcellulose) (HPC)): 16 % of control
- T/C (dose: 16.0 mg/kg/injection, schedule: Q07DX002 (ip), vehicle: saline): 8 % of control (2×) and 11 % of control

Compound: Nc1ncnc2c1ccn2C1OC(CO)C(O)C1O (centres undefined)
- T/C (dose: 0.5 mg/kg/injection, schedule: Q07DX003 (ip), vehicle: Klucel (hydroxypropylcellulose) (HPC)): 110 % of control and 87 % of control
- T/C (dose: 1.0 mg/kg/injection, schedule: Q07DX003 (ip), vehicle: Klucel (hydroxypropylcellulose) (HPC)): 74 % of control and 80 % of control
- T/C (dose: 2.0 mg/kg/injection, schedule: Q07DX003 (ip), vehicle: Klucel (hydroxypropylcellulose) (HPC)): 84 % of control and 86 % of control

Compound: C/C(=C\c1ccccc1)[N+](=O)[O-]
- T/C (dose: 12.5 mg/kg/injection, schedule: Q07DX003 (ip), vehicle: Klucel (hydroxypropylcellulose) (HPC)): 81 % of control
- T/C (dose: 25.0 mg/kg/injection, schedule: Q07DX003 (ip), vehicle: Klucel (hydroxypropylcellulose) (HPC)): 79 % of control and 91 % of control
- T/C (dose: 50.0 mg/kg/injection, schedule: Q07DX003 (ip), vehicle: Klucel (hydroxypropylcellulose) (HPC)): 82 % of control and 90 % of control

Compound: CC(C)CC(NC(=O)CF)C(=O)O (centres undefined)
- T/C (dose: 0.62 mg/kg/injection, schedule: Q07DX002 (ip), vehicle: saline): 46 % of control
- T/C (dose: 0.63 mg/kg/injection, schedule: Q07DX002 (ip), vehicle: saline): 75 % of control
- T/C (dose: 1.25 mg/kg/injection, schedule: Q07DX002 (ip), vehicle: saline): 94 % of control and 96 % of control
- T/C (dose: 5.0 mg/kg/injection, schedule: Q07DX002 (ip), vehicle: saline): 74 % of control and 76 % of control
- T/C (dose: 10.0 mg/kg/injection, schedule: Q07DX002 (ip), vehicle: saline): 71 % of control and 92 % of control

Compound: N=c1ccn2c(n1)OC1C(O)C(CO)OC12 (centres undefined)
- T/C [1]: 84 % of control
- T/C [2]: 105 % of control
- T/C (dose: 50.0 mg/kg/injection, schedule: Q07DX003 (ip), vehicle: suspension in saline): 94 % of control
- T/C (dose: 100.0 mg/kg/injection, schedule: Q07DX003 (ip), vehicle: suspension in saline): 73 % of control
- T/C (dose: 200.0 mg/kg/injection, schedule: Q07DX003 (ip), vehicle: suspension in saline): 66 % of control
- T/C (dose: 400.0 mg/kg/injection, schedule: Q07DX003 (ip), vehicle: suspension in saline): 51 % of control
- T/C (dose: 800.0 mg/kg/injection, schedule: Q07DX003 (ip), vehicle: suspension in saline): 20 % of control
- T/C (dose: 1600.0 mg/kg/injection, schedule: Q07DX002 (ip), vehicle: saline): 31 % of control
- T/C (dose: 1600.0 mg/kg/injection, schedule: Q07DX003 (ip), vehicle: suspension in saline): 19 % of control
